Experiments:
Assay in all cases: Bliss excess, mean over the matrix (fraction); higher = more synergy
[1] = system: CAMA-1 (Breast Carcinoma)
How it was run: (§1)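 Cell lines in DMEM/F12 or RPMI with 10% FBS were plated in 1536-well plates, held 24 hours at 37°C, 5% CO2, then given two-drug dose matrices for 72 hours (DMSO typically 0.2%). Viability was read by CellTiter-Glo 2.0 luminescence and scaled as inhibition from 0 (vehicle wells) to 1 (blank wells). Combination Emax is the second-highest inhibition in the matrix; Bliss excess is observed combination effect minus expected EA + EB − EA·EB, EA and EB being single-agent effects.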

CHP-212 (Neuroblastoma) = system: CHP-212 (Neuroblastoma)
How it was run: as §1

[2] = system: COLO-678 (Colorectal Carcinoma)
How it was run: as §1

[3] = system: DiFi (Colorectal Carcinoma)
How it was run: as §1

[4] = system: EVSA-T (Breast Carcinoma)
How it was run: as §1

[5] = system: HDQ-P1 (Breast Carcinoma)
How it was run: as §1

[6] = system: KM12 (Colorectal Carcinoma)
How it was run: as §1

[7] = system: KYSE-180 (Esophageal Squamous Cell Carcinoma)
How it was run: as §1

[8] = system: L-540 (Hodgkin's Lymphoma)
How it was run: as §1

MEL-JUSO (Melanoma) = system: MEL-JUSO (Melanoma)
How it was run: as §1

[9] = system: MFM-223 (Breast Carcinoma)
How it was run: as §1

[10] = system: MKN28 (Gastric Carcinoma)
How it was run: as §1

[11] = system: NCI-H1792 (Lung Adenocarcinoma)
How it was run: as §1

[12] = system: SW837 (Colorectal Carcinoma)
How it was run: as §1

TC-71 (Ewing's Sarcoma) = system: TC-71 (Ewing's Sarcoma)
How it was run: as §1

[13] = system: TE-6 (Esophageal Squamous Cell Carcinoma)
How it was run: as §1

[14] = system: TOV-112D (Ovarian Carcinoma)
How it was run: as §1

U251 (Low Grade Glioma) = system: U251 (Low Grade Glioma)
How it was run: as §1

WM-115 (Melanoma) = system: WM-115 (Melanoma)
How it was run: as §1

Row | Compound | Bliss excess [1] | Bliss excess (CHP-212 (Neuroblastoma)) | Bliss excess [2] | Bliss excess [3] | Bliss excess [4] | Bliss excess [5] | Bliss excess [6] | Bliss excess [7] | Bliss excess [8] | Bliss excess (MEL-JUSO (Melanoma)) | Bliss excess [9] | Bliss excess [10] | Bliss excess [11] | Bliss excess [12] | Bliss excess (TC-71 (Ewing's Sarcoma)) | Bliss excess [13] | Bliss excess [14] | Bliss excess (U251 (Low Grade Glioma)) | Bliss excess (WM-115 (Melanoma))
1 | NC1(C(=O)N[C@@H](CCO)c2ccc(Cl)cc2)CCN(c2ncnc3[nH]ccc23)CC1 [Capivasertib] + C[C@@H]1COCCN1C2=NC(=NC(=C2)C3(CC3)[S@](=N)(=O)C)C4=C5C=CNC5=NC=C4 [AZD6738] (first compound max 10 µM, 7x7, partner max 10 µM) | -0.0149 | -0.0156 | -0.051 | -0.122 | 0.0185 | -0.0178 | 0.0297 | -0.0866 | -0.0059 | 0.0083 | -0.0626 | -0.0459 | -0.0208 | -0.0862 | 0.0295 | -0.0476 | -0.0632 | -0.0006 | -0.0502
2 | Cn1cnc2c(F)c(Nc3ccc(Br)cc3Cl)c(C(=O)NOCCO)cc21 [Selumetinib] + CCN(CCO)CCCOc1ccc2c(Nc3cc(CC(=O)Nc4cccc(F)c4)[nH]n3)ncnc2c1 [AZD2811] (first compound max 10 µM, 7x7, partner max 1 µM) | -0.0227 | -0.0316 | -0.0223 | 0.0371 | 0.0097 | -0.0538 | -0.0409 | -0.0408 | -0.0634 | -0.0206 | -0.0363 | -0.0317 | 0.0143 | -0.0311 | 0.0298 | -0.0282 | -0.01 | -0.034 | -0.042
3 | NC1(C(=O)N[C@@H](CCO)c2ccc(Cl)cc2)CCN(c2ncnc3[nH]ccc23)CC1 [Capivasertib] + COc1nnc2ccc(N3CCC(c4ccc(OCCN5CCN(C)C(=O)[C@H]5C)cc4)CC3)nn12 [AZD5153] (first compound max 10 µM, 7x7, partner max 1 µM) | 0.106 | 0.0469 | -0.0688 | -0.056 | -0.033 | 0.0651 | 0.0143 | 0.0387 | -0.0794 | -0.0049 | -0.0302 | -0.0075 | 0.0039 | -0.0301 | 0.0228 | -0.0708 | 0.0088 | 0.0284 | 0.0031
4 | COc1cc2ncnc(Nc3ccc(F)c(Cl)c3)c2cc1OCCCN1CCOCC1 [Gefitinib] + CC(C)n1c(=O)n(C)c2cnc3cc(F)c(-c4ccc(OCCCN5CCCCC5)nc4)cc3c21 [AZD1390] (first compound max 10 µM, 7x7, partner max 0.3 µM) | -0.0434 | -0.0352 | -0.111 | -0.0882 | -0.0306 | -0.114 | -0.0406 | -0.0621 | -0.0591 | -0.0857 | -0.0681 | -0.0498 | -0.0422 | -0.06 | -0.0927 | -0.117 | -0.0392 | -0.0624 | -0.0856
5 | COc1nnc2ccc(N3CCC(c4ccc(OCCN5CCN(C)C(=O)[C@H]5C)cc4)CC3)nn12 [AZD5153] + Cc1c2c(nn1C)CSCc1cc(n(C)n1)CSc1cc(c3ccccc3c1)OCCCc1c(C(=O)O)n(C)c3c-2c(Cl)ccc13 [AZD5991] (first compound max 1 µM, 7x7, partner max 1 µM) | 0.0283 | -0.0281 | -0.0476 | -0.0066 | 0.003 | -0.0667 | -0.0473 | -0.0033 | 0.0062 | -0.0507 | -0.0258 | -0.0235 | -0.0008 | -0.0411 | 0.0285 | -0.0701 | 0.0347 | -0.0253 | -0.0256
6 | CC(=O)c1c(C)c2cnc(Nc3ccc(N4CCNCC4)cn3)nc2n(C2CCCC2)c1=O [Palbociclib] + Cc1c2c(nn1C)CSCc1cc(n(C)n1)CSc1cc(c3ccccc3c1)OCCCc1c(C(=O)O)n(C)c3c-2c(Cl)ccc13 [AZD5991] (first compound max 10 µM, 7x7, partner max 1 µM) | -0.0525 | 0.0199 | -0.0814 | -0.0139 | -0.117 | -0.0396 | -0.0194 | -0.0602 | -0.0063 | -0.103 | -0.0784 | -0.0385 | -0.0186 | -0.0582 | -0.0182 | -0.0272 | 0.0428 | -0.0479 | -0.0282
7 | Cn1cnc2c(F)c(Nc3ccc(Br)cc3Cl)c(C(=O)NOCCO)cc21 [Selumetinib] + CC(C)n1c(=O)n(C)c2cnc3cc(F)c(-c4ccc(OCCCN5CCCCC5)nc4)cc3c21 [AZD1390] (first compound max 10 µM, 7x7, partner max 0.3 µM) | -0.0429 | -0.0337 | -0.0409 | 0.0004 | -0.0185 | -0.0456 | -0.0376 | -0.042 | -0.0407 | -0.0291 | -0.033 | -0.0463 | -0.0075 | -0.0343 | -0.0211 | -0.0528 | -0.0262 | -0.0361 | -0.0442
8 | Cn1cnc2c(F)c(Nc3ccc(Br)cc3Cl)c(C(=O)NOCCO)cc21 [Selumetinib] + C[C@@H]1COCCN1C2=NC(=NC(=C2)C3(CC3)[S@](=N)(=O)C)C4=C5C=CNC5=NC=C4 [AZD6738] (first compound max 10 µM, 7x7, partner max 10 µM) | -0.0506 | -0.0474 | 0.132 | 0.0092 | -0.0377 | 0.0228 | 0.0286 | -0.0249 | -0.0415 | 0.0935 | -0.0412 | -0.0316 | -0.0049 | -0.095 | -0.022 | 0.0221 | -0.0377 | -0.0149 | 0.0116
9 | Cn1cnc2c(F)c(Nc3ccc(Br)cc3Cl)c(C(=O)NOCCO)cc21 [Selumetinib] + C=CCn1c(=O)c2cnc(Nc3ccc(N4CCN(C)CC4)cc3)nc2n1-c1cccc(C(C)(C)O)n1 [AZD1775] (first compound max 10 µM, partner max 1 µM) | -0.0309 | -0.0257 | 0.0011 | 0.0233 | -0.015 | -0.0453 | -0.0672 | -0.122 | -0.0374 | -0.0388 | -0.0831 | -0.0192 | -0.0647 | -0.0207 | -0.039 | 0.0165 | -0.0497 | -0.0365 | -0.0731
10 | NC1(C(=O)N[C@@H](CCO)c2ccc(Cl)cc2)CCN(c2ncnc3[nH]ccc23)CC1 [Capivasertib] + CCN(CCO)CCCOc1ccc2c(Nc3cc(CC(=O)Nc4cccc(F)c4)[nH]n3)ncnc2c1 [AZD2811] (first compound max 10 µM, 7x7, partner max 1 µM) | 0.0051 | -0.008 | -0.0218 | -0.0475 | 0.0219 | -0.0077 | -0.0303 | -0.0303 | 0.0547 | -0.0083 | -0.0072 | 0.0119 | -0.0079 | -0.0646 | -0.0573 | -0.0003 | 0.0175 | 0.0469 | -0.0223
11 | CC(=O)c1c(C)c2cnc(Nc3ccc(N4CCNCC4)cn3)nc2n(C2CCCC2)c1=O [Palbociclib] + CN(CC[C@H](CSC1=CC=CC=C1)NC2=C(C=C(C=C2)S(=O)(=O)NC(=O)C3=CC=C(C=C3)N4CCC(CC4)[C@H](C5=CC=CC=C5C6=CC=C(C=C6)Cl)O)S(=O)(=O)C(F)(F)F)CCO [AZD4320] (first compound max 10 µM, 7x7, partner max 1 µM) |  | -0.0366 | -0.0747 | -0.0038 | -0.0631 | -0.0735 | -0.0377 | -0.0269 |  | -0.099 | -0.0021 |  |  |  | -0.0326 | -0.0596 | -0.0002 | -0.0989 | 
12 | COc1nnc2ccc(N3CCC(c4ccc(OCCN5CCN(C)C(=O)[C@H]5C)cc4)CC3)nn12 [AZD5153] + CN(CC[C@H](CSC1=CC=CC=C1)NC2=C(C=C(C=C2)S(=O)(=O)NC(=O)C3=CC=C(C=C3)N4CCC(CC4)[C@H](C5=CC=CC=C5C6=CC=C(C=C6)Cl)O)S(=O)(=O)C(F)(F)F)CCO [AZD4320] (first compound max 1 µM, 7x7, partner max 1 µM) |  | -0.0243 | 0.0322 | 0.0671 | 0.0426 | 0.0844 | 0.0033 | 0.0551 |  | 0.0122 | -0.0065 |  |  |  | -0.081 | -0.0157 | 0.0022 | 0.0547 | 
13 | C[C@@H](c1ccc2nccn2c1)n1nnc2ncc(-c3cnn(C)c3)nc21 [Savolitinib] + CN(CC[C@H](CSC1=CC=CC=C1)NC2=C(C=C(C=C2)S(=O)(=O)NC(=O)C3=CC=C(C=C3)N4CCC(CC4)[C@H](C5=CC=CC=C5C6=CC=C(C=C6)Cl)O)S(=O)(=O)C(F)(F)F)CCO [AZD4320] (first compound max 1 µM, 7x7, partner max 1 µM) |  | -0.0613 | -0.0766 | -0.0713 | 0.0099 | -0.0432 | -0.0156 | -0.0161 |  | -0.0487 | -0.0726 |  |  |  | -0.0266 | -0.0312 | -0.0414 | -0.0546 | 

From the supplement of paper PMC11061612
